Literature values in publication PMC12497738, “Linear and conformational epitopes of vicilin-buried peptides as a model for improved nut allergy diagnostics” (Frontiers in Allergy, 2025).
Entries after “also recorded” stand apart in the source; their conditions may differ.

System: 6D12 monoclonal antibody
Conditions: N-terminal helix, amino acids 21–36 of folded JR2.1; unpublished communications by Dr. Geoffrey Mueller (NIEHS); ref [16]
Source text: The mature vicilin domains in Figure 1A are labeled Jug r 2 and Ara h 1. A human monoclonal IgE antibody (6D12) was used to assess IgE binding to conformational epitopes in JR2LS and its three constituent VBPs using ciELISA (Figures 1B,C). […] With this method, a known immunodominant epitope of Ara h 2 was used to identify a cross-reactive, linear epitope in the JR2LS ([16]). The IgE binding regions identified in this study overlap or are near the previously described epitope containing areas, emphasizing the relevance of JR2LS VBPs as clinically relevant IgE targets ([16], [17]). Here, ELISA, linear peptide microarray, and computational analysis were used to ...

**Q.** Which “Binding of 6D12 to peptide 5, in words” value does the source give for “CQEYCRRQGQGQRQQ [peptide 5, …, N-terminal helix, amino acids 21–36 of the folded JR2.1]” here?
**A.** specific binding; also recorded: the primary target of 6D12
